In experiment [1] the target is T1, Serine/threonine-protein kinase RAF and Dual specificity mitogen-activated protein kinase kinase 1 (Raf/MEK) (Homo sapiens, UniProt P04049+Q02750). As to the kind of experiment: Inhibitory activity in EGF-stimulated Elk1-luciferase reporter assay in HeLa cells at 20 uM. Format: functional, cell-based. In general terms: Reporter assays use an easily measured gene product as a stand-in for the process of interest.

Experiment [2] concerns HCT-116. The experiment can be described thus: Ability of compound to inhibit anchorage independent colony formation (soft agar growth assay) in HCT116 cells. Format: functional. Particulars: Homo sapiens.
In experiment [3] the target is T1, Serine/threonine-protein kinase RAF and Dual specificity mitogen-activated protein kinase kinase 1 (Raf/MEK). The experiment can be described thus: Inhibition of EGF-stimulated Elk1-luciferase reporter assay in HeLa cells. Format: functional, cell-based.
The subject of experiment [4] is HCT-116. The experiment can be described thus: Antiproliferative activity was evaluated using HCT116 cells in WST-1 assay. Format: functional. Conditions: Homo sapiens.
For experiment [5], the system named is HCT-116. As to the kind of experiment: cells. Particulars: Homo sapiens.
Description: Antiproliferative activity was evaluated using HCT116 cells in WST-1 assay at 15 uM
For experiment [6], the target named is T1, Serine/threonine-protein kinase RAF and Dual specificity mitogen-activated protein kinase kinase 1 (Raf/MEK). The experiment can be described thus: Inhibitory activity in EGF-stimulated Elk1-luciferase reporter assay in HeLa cells at 15 uM. It is filed as functional, cell-based.
For experiment [7] the target is unchanged. The experiment can be described thus: Inhibitory activity in EGF-stimulated Elk1-luciferase reporter assay in HeLa cells at 30 uM. It is filed as functional, cell-based.
Experiment [8] concerns HCT-116. As to the kind of experiment: Antiproliferative activity was evaluated using HCT116 cells in WST-1 assay at 60 uM. Format: functional. Conditions: Homo sapiens.
For experiment [9], the target named is T1, Serine/threonine-protein kinase RAF and Dual specificity mitogen-activated protein kinase kinase 1 (Raf/MEK). The experiment can be described thus: Inhibitory activity in EGF-stimulated Elk1-luciferase reporter assay in HeLa cells at 60 uM. Format: functional, cell-based.

T1 sequence (P04049 whole entry, looked up): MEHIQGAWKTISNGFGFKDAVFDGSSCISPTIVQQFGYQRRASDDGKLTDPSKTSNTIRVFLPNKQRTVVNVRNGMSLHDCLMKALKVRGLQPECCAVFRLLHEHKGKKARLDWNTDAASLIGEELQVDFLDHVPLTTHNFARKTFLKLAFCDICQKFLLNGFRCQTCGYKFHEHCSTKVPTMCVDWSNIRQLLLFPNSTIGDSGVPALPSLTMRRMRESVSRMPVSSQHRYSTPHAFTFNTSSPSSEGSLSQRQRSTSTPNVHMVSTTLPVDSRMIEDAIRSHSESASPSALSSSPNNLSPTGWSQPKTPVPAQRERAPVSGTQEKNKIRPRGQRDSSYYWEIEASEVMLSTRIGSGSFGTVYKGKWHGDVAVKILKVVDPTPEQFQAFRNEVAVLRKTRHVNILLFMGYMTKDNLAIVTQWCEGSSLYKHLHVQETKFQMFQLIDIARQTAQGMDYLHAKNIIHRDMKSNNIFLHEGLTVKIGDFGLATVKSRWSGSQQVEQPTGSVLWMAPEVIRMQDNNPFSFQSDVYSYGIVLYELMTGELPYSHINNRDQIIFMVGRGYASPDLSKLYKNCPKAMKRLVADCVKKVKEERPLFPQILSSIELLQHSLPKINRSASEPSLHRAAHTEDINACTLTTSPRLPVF
T1 sequence (Q02750 whole entry, looked up): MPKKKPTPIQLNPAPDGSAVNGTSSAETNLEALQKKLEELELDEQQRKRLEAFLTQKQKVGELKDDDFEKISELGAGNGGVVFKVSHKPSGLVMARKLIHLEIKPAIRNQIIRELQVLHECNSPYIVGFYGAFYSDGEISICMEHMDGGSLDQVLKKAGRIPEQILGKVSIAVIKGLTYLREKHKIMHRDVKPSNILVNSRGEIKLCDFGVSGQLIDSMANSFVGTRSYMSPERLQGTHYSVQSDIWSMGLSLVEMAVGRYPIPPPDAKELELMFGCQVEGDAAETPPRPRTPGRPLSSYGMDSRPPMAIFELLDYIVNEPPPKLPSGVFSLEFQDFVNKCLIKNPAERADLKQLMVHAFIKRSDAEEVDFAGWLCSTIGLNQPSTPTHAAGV

As for `COc1ccc(CN(CCc2ccccn2)C(=O)c2ccccc2Cl)cc1OCc1ccccc1`, the inhibition in experiment [1] was found to be 32%.
For `COc1ccc(CN(CCc2ccccn2)C(=O)c2ccccc2Cl)cc1OC`, the inhibition in experiment [1] is 24%.
In the case of `COc1cc(CN(CCc2ccccn2)C(=O)CCC(C)c2ccccc2)ccc1OCc1ccccc1` (centres undefined), the GI50 in the experiment with HCT-116 [2] stood at 23.5 µM; in the experiment with HCT-116 [4], 13.2 µM. The IC50 in experiment [3] is 11.2 µM.
The like results for `COc1cc(C(=O)N(CCc2ccccn2)Cc2ccccc2Cl)ccc1OCc1ccccc1` were, in that order, 18.8 µM, 29 µM and 16.2 µM.
For `N#CC(=C(/N)Sc1ccccc1N)/C(C#N)=C(\N)Sc1ccccc1N`, the GI50 in the experiment on HCT-116 [2] amounted to 19.4 µM. Moreover, the inhibition at 15 µM in the experiment on HCT-116 [5] was determined as 35%.
On to `COc1cc(CN(CCc2ccccn2)C(=O)COCc2ccccc2)ccc1OCc1ccccc1`, for which the inhibition in [1] stood at 43%.
For the compound `COc1cc(CN(CCc2ccccn2)C(=O)CCCCc2ccccc2)ccc1OCc1ccccc1`, the values for the GI50 in the experiment with HCT-116 [2] and in the experiment on HCT-116 [4] were 20.6 µM and 16.2 µM, respectively. Further, the IC50 in [3] worked out at 9 µM.
Consider `COc1cc(CN(CCc2ccccn2)C(=O)C2CC2c2ccccc2)ccc1OCc1ccccc1` (trans isomer), for which the GI50 in the experiment on HCT-116 [2] worked out at 25.9 µM; in the experiment on HCT-116 [4], 23.9 µM. Further, the IC50 in experiment [3] is 10.5 µM.
The compound `COc1cc(CN(CCc2ccccn2)C(=O)CNCc2ccccc2)ccc1OCc1ccccc1` had an inhibition in experiment [1] of 6%.
Turning to `O=C(CCCCc1ccccc1)N(CCc1ccccn1)Cc1ccc(OCc2ccccc2)c(O)c1`, the IC50 in experiment [3] came out at 19.4 µM. In the experiment with HCT-116 [4], this compound gave a 50% growth inhibitory concentration (GI50) of 31.6 µM.
For the compound `COc1cc(CN(CCC2CCCCN2)C(=O)CCCc2ccccc2)ccc1OCc1ccccc1` (centres undefined), the GI50 is 3.5 µM in the experiment on HCT-116 [2] and 5.4 µM in the experiment on HCT-116 [4]. Also, the inhibition in experiment [6] came out at 0%; in experiment [7] it was 100%.
As to `O=C(CCCCc1ccccc1)N(CCc1ccccn1)Cc1ccc(OCc2ccccc2)c(OCCO)c1`, the GI50 in the experiment with HCT-116 [2] was 14.4 µM; with HCT-116 [4], 18.6 µM. This compound showed an IC50 in experiment [3] of 14.2 µM.
The like results for `COc1cc(CN(CCc2cccc(O)n2)C(=O)CCCCc2ccccc2)ccc1OCc1ccccc1` were, in that order, 32.3 µM, 22.6 µM and 12.3 µM.
On to `O=C(c1ccccc1Cl)N(CCc1ccccn1)CC1CCN(CCc2ccccc2)CC1`, for which the inhibition at 60 µM with HCT-116 [8] stood at 32%. Further, in experiment [9], the inhibition was found to be 7%.
In [1], `COc1cc(CN(CCc2ccccn2)C(=O)C(N)Cc2ccccc2)ccc1OCc1ccccc1` (centres undefined) showed an inhibition of 14%.
In the case of `COc1cc(CN(CCc2ccccn2)C(=O)c2ccccc2Cl)ccc1OCc1ccccc1`, the 50% growth inhibitory concentration (GI50) came to 22.1 µM in the experiment with HCT-116 [2] and 24.7 µM with HCT-116 [4]. The compound also returned an IC50 in experiment [3] of 20.6 µM.
`CNC(=O)c1cc(Oc2ccc(NC(=O)Nc3ccc(Cl)c(C(F)(F)F)c3)cc2)ccn1` [SORAFENIB]: the GI50 was determined as 6.6 µM with HCT-116 [2] and 5.4 µM with HCT-116 [4].
`COc1cc(CN(Cc2ccccc2Cl)C(=O)Cc2ccccn2)ccc1OCc1ccccc1` returned an IC50 in experiment [3] of 25.3 µM.

One may read the inhibition as how much of the control response was suppressed. Higher therefore signals strong suppression. As a reminder, the GI50 is the concentration that inhibits growth by half. The IC50 is the concentration at which inhibition is half-maximal. Read a high IC50 as weaker potency.

These data come from ChEMBL document CHEMBL1137122, “Solution phase parallel synthesis and evaluation of MAPK inhibitory activities of close structural analogues of a Ras pathway modulator” (Bioorg Med Chem Lett, 2004).
